# Assay results taken from patent US20210386069A1 (priority 2018, published 2021).
# Assay: log P by HPLC on a reversed-phase column (C 18), EEC Directive 79/831 Annex V.A8
# Format: physicochemical
# Conditions: HPLC reversed-phase C 18, 40° C., 0.1% aqueous formic acid and acetonitrile, linear gradient 10% to 95% acetonitrile
# Protocol: In table 1, the log P values were determined in accordance with EEC Directive 79/831 Annex V.A8 by HPLC (High Performance Liquid Chromatography) on a reversed-phase column (C 18), using the method described below:
# temperature: 40° C.; mobile phases: 0.1% aqueous formic acid and acetonitrile; linear gradient from 10% acetonitrile to 95% acetonitrile;
# If more than one Log P value is available within the same method, all the values are given and separated by “;”.
# Calibration was carried out using unbranched alkan-2-ones (comprising 3 to 16 carbon atoms) with known log P values (determination of the log P values by the retention times using linear interpolation between two successive alkanones). lambda-max-values were determined using UV-spectra from 200 nm to 400 nm and the peak values of the chromatographic signals.
row,Compound,logP
1,Cc1nc2c(F)c(F)ccc2cc1Nc1cccc(F)c1-c1ccnc(Cl)c1 [I.091],3.69
2,Cc1nc2c(F)c(F)ccc2cc1Nc1cccc(F)c1-c1ccc(Cl)nc1 [I.092],3.72
3,Cc1nc2c(F)c(F)ccc2cc1Nc1cccc(F)c1-c1ccncc1Cl [I.093],3.46
4,Cc1nc2c(F)c(F)ccc2cc1Nc1cccc(F)c1-c1cccnc1Cl [I.094],3.50
5,Cc1nc2c(F)c(F)ccc2cc1Nc1ccccc1-c1cc(Cl)cnc1F [I.095],4.01
6,Cc1nc2c(F)c(F)ccc2cc1Nc1ccccc1-c1ccnc(F)c1Cl [I.096],3.91
7,Cc1nc2c(F)c(F)ccc2cc1Nc1ccccc1-c1cc(F)cnc1Cl [I.097],3.81
8,Cc1nc2c(F)c(F)ccc2cc1Nc1ccccc1-c1cc(Cl)ncc1F [I.098],3.91
9,Cc1nc2c(F)c(F)ccc2cc1Nc1cccc(F)c1-c1cncc(Cl)c1 [I.099],3.60
10,Cc1nc2c(F)c(F)ccc2cc1Nc1cccc(F)c1-c1cc(F)nc(F)c1 [I.100],3.98
11,Cc1nc2c(F)c(F)ccc2cc1Nc1cccc(F)c1-c1ccnc(F)c1F [I.101],3.81
12,Cc1nc2c(F)c(F)ccc2cc1Nc1cccc(F)c1-c1ccc(F)nc1F [I.103],3.84
13,Cc1nc2c(F)c(F)ccc2cc1Nc1cccc(F)c1-c1cccnc1C1CC1 [I.105],3.25
14,Cc1nc2c(F)c(F)ccc2cc1Nc1cccc(F)c1-c1ccncc1C1CC1 [I.106],2.49
15,Cc1nc2c(F)c(F)ccc2cc1Nc1ccccc1-c1ccc(OC(C)C)nc1 [I.107],4.43
16,COc1ccc(-c2ccccc2Nc2cc3ccc(F)c(F)c3nc2C)c(OC)n1 [I.108],4.62
17,CCCc1ncccc1-c1c(F)cccc1Nc1cc2ccc(F)c(F)c2nc1C [I.109],2.62
18,CCCc1cnccc1-c1c(F)cccc1Nc1cc2ccc(F)c(F)c2nc1C [I.110],2.89
19,CCCc1ccncc1-c1c(F)cccc1Nc1cc2ccc(F)c(F)c2nc1C [I.111],2.75
20,CCOc1ccc(-c2c(F)cccc2Nc2cc3ccc(F)c(F)c3nc2C)cn1 [I.112],4.09
21,CCOc1ncccc1-c1c(F)cccc1Nc1cc2ccc(F)c(F)c2nc1C [I.113],4.13
22,CSc1ccc(-c2c(F)cccc2Nc2cc3ccc(F)c(F)c3nc2C)cn1 [I.114],3.91
23,CSc1ncccc1-c1c(F)cccc1Nc1cc2ccc(F)c(F)c2nc1C [I.115],3.98

row,Compound,logP
1,COc1nccc(-c2ccccc2Nc2cc3ccc(F)c(F)c3nc2C)c1Cl [I.116],4.09
2,COc1c(-c2c(F)cccc2Nc2cc3ccc(F)c(F)c3nc2C)ccnc1F [I.117],3.75
3,Cc1cnc(Cl)c(-c2c(F)cccc2Nc2cc3ccc(F)c(F)c3nc2C)c1 [I.118],3.75
4,Cc1cc(-c2c(F)cccc2Nc2cc3ccc(F)c(F)c3nc2C)cnc1Cl [I.119],3.98
5,Cc1nc2c(F)c(F)ccc2cc1Nc1cccc(F)c1-c1ccc(Cl)nc1C [I.120],4.01
6,Cc1cc(Cl)ncc1-c1c(F)cccc1Nc1cc2ccc(F)c(F)c2nc1C [I.121],4.01
7,Cc1nc2c(F)c(F)ccc2cc1Nc1ccccc1-c1cncc(C(F)(F)F)c1 [I.122],3.65
8,Cc1nc2c(F)c(F)ccc2cc1Nc1ccccc1-c1ccc(C(F)(F)F)nc1 [I.123],3.91
9,Cc1nc2c(F)c(F)ccc2cc1Nc1ccccc1-c1cc(Cl)cnc1Cl [I.124],4.13
10,Cc1nc2c(F)c(F)ccc2cc1Nc1cccc(F)c1-c1cc(Cl)ncc1F [I.126],3.98
11,Cc1nc2c(F)c(F)ccc2cc1Nc1cccc(F)c1-c1cc(F)cnc1Cl [I.127],3.87
12,Cc1nc2c(F)c(F)ccc2cc1Nc1cccc(F)c1-c1cc(Cl)cnc1F [I.128],4.05
13,Cc1nc2c(F)c(F)ccc2cc1Nc1cccc(F)c1-c1ccnc(F)c1Cl [I.129],3.98
14,Cc1nc2c(F)c(F)ccc2cc1Nc1cccc(F)c1-c1ccc(OC(C)C)nc1 [I.130],4.47
15,COc1ccc(-c2c(F)cccc2Nc2cc3ccc(F)c(F)c3nc2C)c(OC)n1 [I.131],4.43
16,COc1nccc(-c2c(F)cccc2Nc2cc3ccc(F)c(F)c3nc2C)c1Cl [I.132],4.09
17,Cc1nc2c(F)c(F)ccc2cc1Nc1cccc(F)c1-c1cncc(C(F)(F)F)c1 [I.133],3.75
18,Cc1nc2c(F)c(F)ccc2cc1Nc1cccc(F)c1-c1ccc(C(F)(F)F)nc1 [I.134],3.94
19,COc1cc(-c2ccccc2Nc2cc3ccc(F)c(F)c3nc2C)c(Br)cn1 [I.135],4.36
20,Cc1nc2c(F)c(F)ccc2cc1Nc1cccc(F)c1-c1cc(F)cnc1F [I.136],3.71
21,Cc1nc2c(F)c(F)ccc2cc1Cc1cccnc1-c1ccnc(F)c1 [I.137],2.52
22,Fc1cc(-c2cscc2Cc2cnc3c(F)cccc3c2)ccn1 [I.139],3.11

# Same assay, conditions: reversed-phase HPLC column (C 18); preparation examples; log P as defined in table 1 (HPLC, 0.1% aqueous formic acid/acetonitrile)
row,Compound,chromatographic logP
1,"Cc1nc2c(F)c(F)ccc2cc1Nc1cccc(F)c1-c1cnccc1C1CC1 [I.104, N-[2-(4-cyclopropylpyridin-3-yl)-3-fluorophenyl]-7,8-difluoro-2-methylquinolin-3-amine]",2.12
2,"Cc1nc2c(F)c(F)ccc2cc1Cc1cscc1-c1ccnc(F)c1 [I.138, 7,8-difluoro-3-{[4-(2-fluoropyridin-4-yl)-3-thienyl]methyl}-2-methylquinoline]",3.64
3,"Cc1nc2c(F)c(F)ccc2cc1Nc1cccc(F)c1Br [N-(2-bromo-3-fluorophenyl)-7,8-difluoro-2-methylquinolin-3-amine]",3.28
